Assays:
[1] = test system: guinea pig isolated trachea; test: Relaxation of histamine contracted guinea pig tracheal chain in vitro; set-up: species or system guinea pigs; conditions: 10^-5 M; percentage on the histamine (1x10^-6 M) induced contraction; n = 8; vehicle -7 ± 3
Protocol: The effect of B-407 on isolated trachea was evaluated in guinea pigs weighing 700 g. The animals were killed and the trachea was dissected out, transferred to a dish containing Krebs solution and cut transversely between the segments of cartilage, so as to give a number of rings of tracheal muscle. Five rings were tied up together with cotton threads, so as to form a chain, which was then mounted in a 10 ml bath with Krebs solution at 37°C, aerated with a mixture of oxygen (95 %) and carbon dioxide (5 %). The load on the lever was 0.4 g. The organ was left to stabilize for 15 to 30 min.
Enough quantity (100 µl) of 0.1 mM histamine solution was added to the bath (1x10^-6 M) in order to obtain a contraction of 0.2 g to 0.5 g of tension. After the contraction reached a plateau, 100 µl of ethanol: distilled water (1:1) (vehicle as control) was added to the bath. Eight minutes later, the preparation was relaxed by washing 4 to 6 times. […]
The relaxation induced by B-407 was expressed as a percentage on the histamine induced contraction. The average ± standard error of all the determinations were calculated ["The guinea-pig tracheal chain"; "Pharmacological Experiments on Isolated Preparations". […]

guinea pigs = test: Histamine-aerosol induced bronchoconstriction in guinea pig; assay type: in vivo; conditions: 150 µg/kg, i.p., 5 minutes before histamine challenge; n= 8; initial 115 ± 6, final 127 ± 4
Protocol: The protective effect of B-407 on the bronchoconstriction induced by histamine aerosol in male guinea pigs weighing 700 g was evaluated. One guinea pig at a time was placed into a 15 l hermetically closed container. Then 200 µl of histamine solution (600 µg of histamine base) was sprayed with compressed air at a pressure of 1 PSI. The time at which the hypoxic symptoms (increase of breathing frequency, bronchospasm, dysnea, apnea and finally the collapse of the animal (falling down) was determined.
The working protocol comprised 3 parts: • 1) The determination of the falling down time of the guinea pigs exposed to the histamine aerosol was determined.
The results were expressed as the time in seconds elapsed before the animals fell down ["Antihistamine Agents" (Cap. 22) in: "Screening Methods in Pharmacology". Academic Press, New York (1965). Brit. J. Pharmacology. 16, 59 (1961); Arch. Intern. Pharmacodyn. 129, 77 (1960); J. Pharmacol. Exptl. Therap. 131, 73 (1961); Arch. Intern. Pharmacodyn. 115, 332 (1958); "Les Antihistaminiques de Synthése", Chapter 22, page 784 in : "Structure et activité pharmacodynamique de medicaments du systéme nerveux vegetatif". S. Karger Bale (Suisse)- New York: (1948)].

Swiss mice = test: Exploratory activity in mice (open field); assay type: in vivo; conditions: i.p., control 88 ± 8, n=10
Protocol: The effect of B-407 on the exploratory activity was evaluated in Swiss mice of 30 g to 40 g in an open-field of 40 cm x 40 cm x 25 cm divided in 9 quadrants. One mouse at a time was placed into the open field to assess its exploratory activity by counting the number of quadrants crossed in 4 consecutive periods of 3 minutes each.
The working protocol consisted of two experiments with 3 groups of 10 animals each. In both experiments, each group of mice were pretreated with B-407, 0 µg/kg, 30 µg/kg and 100 µg/kg five min prior to the test. In one experiment, the animals were treated, p.o., with a combination of the antispasmodics homatropine methylbromide (5 mg/kg) and papaverine (5 mg/kg) administered 10 min prior to B-407. In the other experiment, this treatment was replaced by saline solution. The two experiments were carried out at the same time.
The results were expressed as the average ± standard error of each group and the statistical significance of the differences were evaluated by means of the Student's-t-test.

Swiss female mice = test: Barbiturate sleeping time in mice; assay type: in vivo; conditions: 100 µg/kg,ip, 15 min before pentobarbital sodium 30 mg/kg i.p., n= 12
Protocol: The effect of B-407 on the time of induction and time of duration of the barbiturate sleeping time was evaluated by determining the time of loss and recovery of the righting reflex. This was carried out in Swiss female mice weighing 20 g to 25 g.
Two groups of 12 mice each were used. One group was treated with B-407 (100 µg/kg, i.p.). Fifteen minutes later, pentobarbital sodium (30 mg/kg, i.p.) was administered. The time of onset (the loss of the righting reflex) and of duration (the elapsed time from the loss of the righting reflex up to its recovery from the barbiturate-induced sleeping) were determined. Full recovery of the righting reflex was assumed when the animal, placed on its back, could recover its normal position at least 3 times during one minute. The control mice group followed the same protocol, but received saline solution instead B-407. The results were expressed as the average ± standard error of each group and the statistical significance of the differences were evaluated by means of the Student's-t-test.

## CCCCC(C)(O)C/C=C/[C@H]1[C@H](O)CC(=O)[C@@H]1CCCC/C=C/C(=O)OC (mixture of isomers) [B-407, trans-Δ^2-15-deoxy-16-hydroxy-16-methyl PGE1 methyl ester]
[1]
  % of relaxation: 35 ± 5%
Guinea pigs
  Falling down time (sec) by bronchospasm: 358 ± 4 s
Swiss mice; 30 µg/kg
  N° Quadrants/12 min: 87 ± 8
Swiss mice; 100 µg/kg, p < 0,05
  N° Quadrants/12 min: 48 ± 8
Swiss female mice; control 4,52 ± 0,22, p < 0,02
  Induction time: 3,75 ± 0,19 min
Swiss female mice; control 27,8 ± 3,10, n.s.
  Sleeping time: 29,7 ± 2,91 min

From patent EP0574185B1, “PGE1 analogs” (NEWPHARMA INTERNATIONAL CORPORATION, priority 1992, dated 1993)
